Experimental findings from patent publication US20240279294A1, “p53 VARIANT WITH IMPROVED LIQUID-LIQUID PHASE SEPARATION ABILITY AND ACTIVITY AND USE THEREOF” (Zhejiang University, priority 2023, published 2024) are described below.

The test system of one assay is U-2OS cells. Put plainly: cell viability (CCK8), protein delivery combined with TAS-120 or IWR-1, U-2OS. The format is cell-based, human. As to conditions: LLPSE-p53 (SEQ ID NO.3) protein 0.5-2 μM 24 h, then inhibitor 5-20 μM 24 h; compared with inhibitor plus buffer. On the procedure: The above system was sterilized with a 0.22 μm filter membrane. • 4. The complete medium in the well plate was sucked and discarded, and the above protein delivery system was added, the plate was then placed in an incubator for culture for 24 h. • 5. […] Cell viability was measured by a CCK8 method and with a M5 microplate reader. • 7. Graphpad5 software was used for data processing and one-way ANOVA method was used for statistical analysis.

A further assay concerns CDKN1A. As to the kind of experiment: CDKN1A luciferase reporter assay in H1299 cells. The format is cell-based, human. As to conditions: H1299, plasmid co-transfected with CDKN1A reporter gene plasmid, 24 h; compared with WT-p53. The procedure: Implementation was made as follows: • 1. Proper number of cells were seeded into a 96-well cell culture plate, plasmids and CDKN1A reporter gene plasmid were co-transformed when cell density reached 60-70%, the cells were then cultured in an incubator for 24 h. • 2. A chemiluminescence test was carried out with a luciferase reporting system test kit produced by Promega and a M5 microplate reader. • 3. Graphpad5 software was used for data processing and analysis.
Implementation was made as follows: • 1. Proper number of cells were seeded into a 96-well cell culture plate, plasmids and CDKN1A reporter gene plasmid were co-transformed when cell density reached 60-70%, the cells were then cultured in an incubator for 24 h. • 2. A chemiluminescence assay was carried out with the luciferase reporting system kit produced by Promega and a M5 microplate reader. • 3. Graphpad5 software was used for data processing and analysis.
Specific implementation steps can refer to Example 8.

For `O=C(Nc1cccc2cccnc12)c1ccc(N2C(=O)[C@@H]3[C@H](C2=O)[C@@H]2C=C[C@H]3C2)cc1` [IWR-1], the “killing of U-2OS cells by the inhibitor when combined with LLPSE-p53 protein” value in the assay with U-2OS cells is recorded as “significantly promotes TAS-120 or IWR-1 to kill U-2OS cells”.

B1: LLPSE-p53 (SEQ ID NO.7): p53 in rat with added sequence (including linker) GGASGHHHHHHHHGGAGGGGRRRRRRKK (protein)
chain: MEDSQSDMSIELPLSQETFSCLWKLLPPDDILPTTATGSPNSMEDLFLPQDVAELLEGPEEALQVSAPAAQEPGTEAPAPVAPASATPWPLSSSVPSQKTYQGNYGFHLGFLQSGTAKSVMCTYSISLNKLFCQLAKTCPVQLWVTSTPPPGTRVRAMAIYKKSQHMTEVVRRCPHHERCSDGDGLAPPQHLIRVEGNPYAEYLDDRQTFRHSVVVPYEPPEVGSDYTTIHYKYMCNSSCMGGMNRRPILTIITLEDSSGNLLGRDSFEVRVCACPGRDRRTEEENFRKKEEHCPELPPGSAKRALPTSTSSSPQQKKKPLDGEYFTLKIRGRERFEMFRELNEALELKDARAAEESGDSRAHSSYPKTKKGQSTSRHKKPMIKKVGPDSDGGASGHHHHHHHHGGAGGGGRRRRRRKK
Regarding B1, the “transactivation activity on CDKN1A” value with CDKN1A was “significantly increases the transactivation activity of CDKN1A”.
